From ChEMBL document CHEMBL1201862, “PubChem BioAssay data set” (2004)
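96-well plates; 48 h exposure; 5 concentrations. Endpoints by linear interpolation between flanking doses. Not reached: highest tested concentration assigned. GI50 = concentration required for 50% inhibition of growth.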 The source made the active and inactive calls. Rule as the data show it: active = GI50 up to about 1.1 µM and inactive = higher.

Experiments:
Assay in all cases: NCI-60 cell line screen, 48 h
DMS-114 = tested on: DMS-114
SNB-19 = tested on: SNB-19
SN12C = tested on: SN12C
OVCAR-4 = tested on: OVCAR-4
UACC-62 = tested on: UACC-62
HT-29 = tested on: HT-29
NCI-H460 = tested on: NCI-H460
RPMI-8226 = tested on: RPMI-8226
K562 = tested on: K562
HCT-116 = tested on: HCT-116
SK-MEL-2 = tested on: SK-MEL-2
OVCAR-8 = tested on: OVCAR-8
SR = tested on: SR
TK-10 = tested on: TK-10
LOX IMVI = tested on: LOX IMVI
SK-MEL-5 = tested on: SK-MEL-5

Compound	GI50 (DMS-114)	GI50 (SNB-19)	GI50 (SN12C)	GI50 (OVCAR-4)	GI50 (UACC-62)	GI50 (HT-29)	GI50 (NCI-H460)	GI50 (RPMI-8226)	GI50 (K562)	GI50 (HCT-116)	GI50 (SK-MEL-2)	GI50 (OVCAR-8)	GI50 (SR)	GI50 (TK-10)	GI50 (LOX IMVI)	GI50 (SK-MEL-5)
COc1cc(/C=C\c2ccc(OC(C)=O)cc2)cc(OC)c1OC	3.33 µM (inactive)	0.668 µM (active)	4.22 µM (inactive)	19.1 µM (inactive)	4.85 µM (inactive)	10.8 µM (inactive)	4.1 µM (inactive)	0.587 µM (active)	2.59 µM (inactive)	4.43 µM (inactive)	4.26 µM (inactive)	4.03 µM (inactive)	5.04 µM (inactive)	–	–	–
CCCCCCCC(=O)NCC(O)CNC(=O)CCCCCCC	> 100 µM (inactive)	> 100 µM (inactive)	> 100 µM (inactive)	> 100 µM (inactive)	> 100 µM (inactive)	> 100 µM (inactive)	> 100 µM (inactive)	> 100 µM (inactive)	> 100 µM (inactive)	> 100 µM (inactive)	–	> 100 µM (inactive)	> 100 µM (inactive)	> 100 µM (inactive)	> 100 µM (inactive)	> 100 µM (inactive)
COc1ccc(NS(=O)(=O)c2ccc(/N=C3\C=C(Nc4ccc(S(=O)(=O)Nc5ccc(OC)nn5)cc4)C(=O)c4ccccc43)cc2)nn1	26.5 µM (inactive)	18.8 µM (inactive)	18.1 µM (inactive)	18.3 µM (inactive)	18.6 µM (inactive)	20.5 µM (inactive)	17.7 µM (inactive)	53.7 µM (inactive)	61.1 µM (inactive)	17.5 µM (inactive)	16.9 µM (inactive)	17.2 µM (inactive)	83.6 µM (inactive)	21.9 µM (inactive)	16.7 µM (inactive)	20.4 µM (inactive)
NS(=O)(=O)c1cc2c(cc1Cl)NC(C(=O)c1cc(=O)c3ccc(O)cc3o1)=NS2(=O)=O	> 100 µM (inactive)	> 100 µM (inactive)	> 100 µM (inactive)	> 100 µM (inactive)	> 100 µM (inactive)	> 100 µM (inactive)	> 100 µM (inactive)	> 100 µM (inactive)	> 100 µM (inactive)	> 100 µM (inactive)	> 100 µM (inactive)	> 100 µM (inactive)	> 100 µM (inactive)	> 100 µM (inactive)	> 100 µM (inactive)	> 100 µM (inactive)
Cc1c(C(=O)NCCO)[n+]([O-])c2cc(Cl)ccc2[n+]1[O-]	> 100 µM (inactive)	> 100 µM (inactive)	> 100 µM (inactive)	> 100 µM (inactive)	> 100 µM (inactive)	> 100 µM (inactive)	> 100 µM (inactive)	> 100 µM (inactive)	> 100 µM (inactive)	> 100 µM (inactive)	–	> 100 µM (inactive)	> 100 µM (inactive)	> 100 µM (inactive)	> 100 µM (inactive)	> 100 µM (inactive)
CCOC(=O)NC(=O)c1cn(CCN2CCN(C(=O)NCCCCCCNC(=O)N3CCN(CCn4cc(C(=O)NC(=O)OCC)c(=O)[nH]c4=O)CC3)CC2)c(=O)[nH]c1=O	> 100 µM (inactive)	> 100 µM (inactive)	> 100 µM (inactive)	> 100 µM (inactive)	> 100 µM (inactive)	> 100 µM (inactive)	> 100 µM (inactive)	> 100 µM (inactive)	> 100 µM (inactive)	> 100 µM (inactive)	> 100 µM (inactive)	> 100 µM (inactive)	> 100 µM (inactive)	> 100 µM (inactive)	> 100 µM (inactive)	> 100 µM (inactive)
CCOC(=O)c1ncn2c1[nH]c(=O)c1ccccc12	> 100 µM (inactive)	> 100 µM (inactive)	> 100 µM (inactive)	> 100 µM (inactive)	> 100 µM (inactive)	> 100 µM (inactive)	> 100 µM (inactive)	> 100 µM (inactive)	> 100 µM (inactive)	> 100 µM (inactive)	> 100 µM (inactive)	> 100 µM (inactive)	> 100 µM (inactive)	> 100 µM (inactive)	> 100 µM (inactive)	> 100 µM (inactive)
CC1=C(C(=O)Nc2ccccc2)C(c2ccc([N+](=O)[O-])cc2)C(C(=O)Nc2ccccc2)=C(C)N1	20.7 µM (inactive)	10.4 µM (inactive)	30.5 µM (inactive)	–	12.2 µM (inactive)	18.2 µM (inactive)	21.1 µM (inactive)	15.2 µM (inactive)	15.4 µM (inactive)	18.5 µM (inactive)	14.7 µM (inactive)	17.3 µM (inactive)	18.4 µM (inactive)	28.7 µM (inactive)	15.2 µM (inactive)	24.1 µM (inactive)
CC(C(=O)n1c2ccccc2c2ccccc21)N(c1ccccc1)c1ccccc1 (stereo unspecified)	17.4 µM (inactive)	45.1 µM (inactive)	19.9 µM (inactive)	–	17.6 µM (inactive)	19.5 µM (inactive)	34.6 µM (inactive)	16.3 µM (inactive)	16.9 µM (inactive)	18.7 µM (inactive)	15.1 µM (inactive)	18.6 µM (inactive)	8.93 µM (inactive)	20 µM (inactive)	16.7 µM (inactive)	20.1 µM (inactive)
C=CCOC(C)n1c(C)cc(=O)n(C(C)OCC=C)c1=O (stereo unspecified)	> 100 µM (inactive)	> 100 µM (inactive)	> 100 µM (inactive)	> 100 µM (inactive)	> 100 µM (inactive)	> 100 µM (inactive)	–	> 100 µM (inactive)	> 100 µM (inactive)	> 100 µM (inactive)	–	> 100 µM (inactive)	> 100 µM (inactive)	–	–	> 100 µM (inactive)
Nc1nc(N)c(N=O)c(Nc2ccc(Br)cc2)n1	21.8 µM (inactive)	45.1 µM (inactive)	17.8 µM (inactive)	48 µM (inactive)	5.5 µM (inactive)	15.8 µM (inactive)	26.5 µM (inactive)	–	> 100 µM (inactive)	13.3 µM (inactive)	21.4 µM (inactive)	27.2 µM (inactive)	> 100 µM (inactive)	29.1 µM (inactive)	18.2 µM (inactive)	–
O=C1OC(=O)C2C3CCC(O3)C12 (stereo unspecified)	> 100 µM (inactive)	> 100 µM (inactive)	> 100 µM (inactive)	–	> 100 µM (inactive)	> 100 µM (inactive)	> 100 µM (inactive)	> 100 µM (inactive)	> 100 µM (inactive)	> 100 µM (inactive)	> 100 µM (inactive)	> 100 µM (inactive)	> 100 µM (inactive)	> 100 µM (inactive)	–	> 100 µM (inactive)
CC(Oc1cc2oc(=O)cc(-c3ccccc3)c2cc1Cl)C(=O)O (stereo unspecified)	> 100 µM (inactive)	> 100 µM (inactive)	> 100 µM (inactive)	> 100 µM (inactive)	> 100 µM (inactive)	> 100 µM (inactive)	> 100 µM (inactive)	–	> 100 µM (inactive)	> 100 µM (inactive)	–	> 100 µM (inactive)	> 100 µM (inactive)	> 100 µM (inactive)	> 100 µM (inactive)	> 100 µM (inactive)
